Laboratory results published in patent publication US20230012368A1 (Hoffmann-La Roche Inc., priority 2018, published 2023).
Where a name gives a salt, the structure may show the parent alone. Read-outs that look alike come from different tables or passages of the source.

System: Acinetobacter baumannii ATCC 17978
Experiment: Antimicrobial susceptibility testing: 90% growth inhibitory concentration (IC90) determination
Type: cell-based
Details: 90% growth inhibitory concentration, Acinetobacter baumannii ATCC17978, Iso-Sensitest broth, OD 600 nm over 16h, read-out: ATCC17978 IC90
Method: Antimicrobial Susceptibility Testing:
90% Growth Inhibitory Concentration (IC90) Determination
The in vitro antimicrobial activity of the compounds was determined according to the following procedure:
The assay used a 10-points Iso-Sensitest broth medium to measure quantitatively the in vitro activity of the compounds against Acinetobacter baumannii ATCC 17978 and Acinetobacter baumannii ATCC 17961.
Stock compounds in DMSO were serially twofold diluted (e.g. range from 50 to 0.097 μM final concentration) in 384 wells microtiter plates and inoculated with 49 μl the bacterial suspension in Iso-Sensitest medium to have a final cell concentration of ˜5×10^(5) CFU/ml in a final volume/well of 50 ul/well. Microtiter plates were incubated at 35±2° C.
Bacterial cell growth was determined with the measurement of optical density at λ=600 nm each 20 minutes over a time course of 16h. Growth inhibition was calculated during the logarithmic growth of the bacterial cells with determination of the concentration inhibiting 50% (IC50) and 90% (IC90) of the growth.
Table 1 provides the 90% growth inhibitory concentrations (IC90) in micromoles per liter of the compounds of present invention obtained against the strain Acinetobacter baumannii ATCC17978 and Acinetobacter baumannii ATCC17961.

[1] = Acinetobacter baumannii, ATCC17978, 16 h

Row | Compound | IC90 [1] [nM] | IC90 [nM]
1 | COc1ccc(-c2cnc3c(Nc4ccc(C(=O)N(C)CCC5CCNCC5)c(C)c4)nccn23)cc1F [Example 11, hydrochloride] | 140 | 
2 | COc1ccc(-c2cnc3c(Nc4ccc(C(=O)N(C)C)c(C)c4)nccn23)cc1 [Example 13, 4-((3-(4-methoxyphenyl)imidazo [1,2-a]pyrazin-8-yl)amino)-N,N,2-trimethylbenzamide] | 240 | 
3 | CNC(=O)c1ccc(Nc2nccn3c(-c4ccc(OC)cc4)cnc23)cc1C [Example 14, 4-((3-(4-methoxyphenyl)imidazo [1,2-a]pyrazin-8-yl)amino)-N,2-dimethylbenzamide] | 120 | 
4 | COc1ccc(-c2cnc3c(Nc4ccc(C(=N)OCC(=N)N(C)C)c(C)c4)nccn23)cc1 [Example 16] | 810 | 
5 | COc1ccc(-c2cnc3c(Nc4ccc(C(=N)NCC(N)=O)c(C)c4)nccn23)cc1 [Example 17] | 550 | 
6 | COc1ccc(-c2cnc3c(Nc4ccc(C(=O)N(C)CCN(C)C)c(C)c4)nccn23)cc1 [Example 18, N-(2-(dimethylamino)ethyl)-4-((3-(4-methoxyphenyl)imidazo [1,2-a]pyrazin-8-yl)amino)-N,2-dimethylbenzamide] | 2200 | 
7 | COc1ccc(-c2cnc3c(Nc4ccc(C(=O)N(C)CCO)c(C)c4)nccn23)cc1 [Example 19, N-(2-hydroxyethyl)-4-((3-(4-methoxyphenyl)imidazo [1,2-a]pyrazin-8-yl)amino)-N,2-dimethylbenzamide] | 690 | 
8 | COc1ccc(-c2cnc3c(Nc4ccc(C(=O)NCC(=O)N5CCC(O)CC5)c(C)c4)nccn23)cc1 [Example 20, N-(2-(4-hydroxypiperidin-1-yl)-2-oxoethyl)-4-((3-(4-methoxyphenyl)imidazo [1,2-a]pyrazin-8-yl)amino)-2-methylbenzamide] | 650 | 
9 | Cc1cc(Nc2nccn3c(-c4ccc(OC(F)F)cc4)cnc23)ccc1C(=O)NCCCCCCN [Example 21, N-(6-aminohexyl)-4-((3-(4-(difluoromethoxy)phenyl)imidazo[1,2-a]pyrazin-8-yl)amino)-2-methylbenzamide hydrochloride] | 120 | 
10 | CNC(=O)c1ccc(Nc2nccn3c(-c4ccc(OC)c(F)c4)cnc23)cc1Cl [Example 22, 2-chloro-4-((3-(3-fluoro-4-methoxyphenyl)imidazo [1,2-a]pyrazin-8-yl)amino)-N-methylbenzamide] | 130 | 
11 | CN(CCC1CCNCC1)C(=O)c1ccc(Nc2nccn3c(-c4ccc(OC(F)F)cc4)cnc23)cc1Cl [Example 23, 2-chloro-4-((3-(4-(difluoromethoxy)phenyl)imidazo[1,2-a]pyrazin-8-yl)amino)-N-methyl-N-(2-(piperidin-4-yl)ethyl)benzamide hydrochloride] | 150 | 
12 | Cc1cc(Nc2nccn3c(-c4ccc(OC(F)F)cc4)cnc23)ccc1C(=O)NCC1CCN(C(=N)N)CC1 [Example 24, N-((1-carbamimidoyl-piperidin-4-yl)methyl)-4-((3-(4-(difluoromethoxy)phenyl)imidazo[1,2-a]pyrazin-8-yl)amino)-2-methylbenzamide] | 340 | 
13 | Cc1cc(Nc2nccn3c(-c4ccc(OC(F)F)cc4)cnc23)ccc1C(=O)NCCCCCN1CCOCC1 [Example 25, 4-((3-(4-(difluoromethoxy)phenyl)imidazo[1,2-a]pyrazin-8-yl)amino)-2-methyl-N-(5-morpholinopentyl) benzamide] | 160 | 
14 | CNC(=O)c1ccc(Nc2nccn3c(-c4ccc(OC(F)F)cc4)cnc23)cc1C [Example 26] | 170 | 
15 | CNC(=O)c1ccc(Nc2nccn3c(-c4ccc(OC)c(Cl)c4)cnc23)cc1C [Example 27, 4-((3-(3-chloro-4-methoxyphenyl)imidazo [1,2-a]pyrazin-8-yl)amino)-N,2-dimethylbenzamide] | 190 | 
16 | COc1ccc(-c2cnc3c(Nc4ccc(C(=O)N(C)CCN(C)C)cc4)nccn23)cc1Cl [Example 28, 4-((3-(3-chloro-4-methoxyphenyl)imidazo [1,2-a]pyrazin-8-yl)amino)-N-(2-(dimethylamino)ethyl)-N-methylbenzamide] | 3600 | 

Row | Compound | IC90 [1] [nM] | IC90 [nM]
17 | COc1ccc(-c2cnc3c(Nc4ccc(C(=O)NCCN5CCNCC5)cc4)nccn23)cc1Cl [Example 30, 4-((3-(3-chloro-4-methoxyphenyl)imidazo [1,2-a]pyrazin-8-yl)amino)-N-(2-(piperazin-1-yl)ethyl)benzamide hydrochloride] | 3700 | 
18 | COc1ccc(-c2cnc3c(Nc4ccc(C(=O)NCCN)c(C)c4)nccn23)cc1 [Example 31, N-(2-aminoethyl)-4-((3-(4-methoxyphenyl)imidazo [1,2-a]pyrazin-8-yl)amino)-2-methylbenzamide] | 2900 | 
19 | COc1ccc(-c2cnc3c(Nc4ccc(C(=O)N(C)CCN)c(C)c4)nccn23)cc1 [Example 32, N-(2-aminoethyl)-4-((3-(4-methoxyphenyl)imidazo [1,2-a]pyrazin-8-yl)amino)-N,2-dimethylbenzamide] | 1700 | 
20 | COc1ccc(-c2cnc3c(Nc4ccc(C(=O)N(C)CCCN)cc4)nccn23)cc1 [Example 33, N-(3-aminopropyl)-4-((3-(4-methoxyphenyl)imidazo [1,2-a]pyrazin-8-yl)amino)-N-methylbenzamide hydrochloride] | 4900 | 
21 | COc1ccc(-c2cnc3c(Nc4ccc(C(=O)N(C)CCCN)c(C)c4)nccn23)cc1 [Example 34, N-(3-aminopropyl)-4-((3-(4-methoxyphenyl)imidazo [1,2-a]pyrazin-8-yl)amino)-N,2-dimethylbenzamide hydrochloride] | 1100 | 
22 | COc1ccc(-c2cnc3c(Nc4ccc(C(=O)N(C)CC5CCOCC5)c(C)c4)nccn23)cc1F [Example 35, 4-[[3-(3-fluoro-4-methoxy-phenyl)imidazo[1,2-a]pyrazin-8-yl]amino]-N,2-dimethyl-N-(tetrahydropyran-4-ylmethyl)benzamide; 2,2,2-trifluoroacetic acid] |  | 1200
23 | COc1ccc(-c2cnc3c(Nc4ccc(C(=O)NCCCN5CCS(=O)(=O)CC5)c(C)c4)nccn23)cc1F [Example 36, N-[3-(1,1-dioxo-1,4-thiazinan-4-yl)propyl]-4-[[3-(3-fluoro-4-methoxy-phenyl)imidazo[1,2-a]pyrazin-8-yl]amino]-2-methyl-benzamide; 2,2,2-trifluoroacetic acid] | 460 | 
24 | COc1ccc(-c2cnc3c(Nc4ccc(C(=O)NCCC5CCOCC5)c(C)c4)nccn23)cc1F [Example 37, 4-[[3-(3-fluoro-4-methoxy-phenyl)imidazo[1,2-a]pyrazin-8-yl]amino]-2-methyl-N-(2-tetrahydropyran-4-ylethyl)benzamide; 2,2,2-trifluoroacetic acid] |  | 240
25 | COc1ccc(-c2cnc3c(Nc4ccc(C(=O)N(C)Cc5cccnc5)c(C)c4)nccn23)cc1F [Example 38, 4-[[3-(3-fiuoro-4-methoxy-phenyl)imidazo[1,2-a]pyrazin-8-yl]amino]-N,2-dimethyl-N-(3-pyridylmethyl) benzamide] | 190 | 
26 | COc1ccc(-c2cnc3c(Nc4ccc(C(=O)N(C)Cc5ccncn5)c(C)c4)nccn23)cc1F [Example 39, 4-[[3-(3-fluoro-4-methoxy-phenyl)imidazo[1,2-a]pyrazin-8-yl]amino]-N,2-dimethyl-N-(pyrimidin-4-ylmethyl)benzamide] | 240 | 
27 | COc1ccc(-c2cnc3c(Nc4ccc(C(=O)NCC5CCOCC5)c(Cl)c4)nccn23)c(F)c1F [Example 40, 2-chloro-4-[[3-(2,3-difluoro-4-methoxy-phenyl)imidazo[1,2-a]pyrazin-8-yl]amino]-N-(tetrahydropyran-4-ylmethyl)benzamide; 2,2,2-trifluoroacetic acid] |  | 180
28 | COc1ccc(-c2cnc3c(Nc4ccc(C(=O)N(C)CC5CCOCC5)c(Cl)c4)nccn23)c(F)c1F [Example 41, 2-chloro-4-[[3-(2,3-difluoro-4-methoxy-phenyl)imidazo[1,2-a]pyrazin-8-yl]amino]-N-methyl-N-(tetrahydropyran-4-ylmethyl)benzamide; 2,2,2-trifluoroacetic acid] |  | 620
29 | COc1ccc(-c2cnc3c(Nc4ccc(C(=O)NCC5CCSCC5)c(Cl)c4)nccn23)c(F)c1F [Example 42, 2-chloro-4-[[3-(2,3-difluoro-4-methoxy-phenyl)imidazo[1,2-a]pyrazin-8-yl]amino]-N-(tetrahydrothiopyran-4-ylmethyl)benzamide] | 890 | 
30 | O=C(NCC1CCNCC1)c1ccc(Nc2nccn3c(-c4ccc(OC(F)F)c(F)c4F)cnc23)cc1Cl [Example 43, 2-chloro-4-[[3-[4-(difluoromethoxy)-2,3-difluoro-phenyl]imidazo[1,2-a]pyrazin-8-yl]amino]-N-(4-piperidylmethyl) benzamide; 2,2,2-trifluoroacetic acid] | 220 | 
31 | COc1ccc(-c2cnc3c(Nc4ccc(C(=O)N(C)CCN5CCNCC5)c(Cl)c4)nccn23)c(F)c1F [Example 44, 2-chloro-4-[[3-(2,3-difluoro-4-methoxy-phenyl)imidazo[1,2-a]pyrazin-8-yl]amino]-N-methyl-N-(2-piperazin-1-ylethyl)benzamide; 2,2,2-trifluoroacetic acid] |  | 120
